Earlier results, collected in patent publication US10603349B2, “Method for preparing pharmaceutical compositions of rhizomes from Alpinia galanga or Alpinia conchigera having a high content of 1′S-1′-acetoxychavicol acetate (ACA)” (NERTHUS APS, priority 2013, dated 2020).

System: whole-body insulin resistance
Details: fructose-induced rat model of metabolic syndrome

O=c1c(O)c(-c2ccccc2)oc2cc(O)cc(O)c12 [Galangin, galangin]
Blood glucose and insulin levels: dose-dependently normalized
